# Data from patent publication US10669283B2, “Compound and pharmacologically acceptable salt thereof” (MEIJI SEIKA PHARMA CO., LTD., priority 2016, dated 2020).
# Where two headings read alike, the source gives them in different places.
# Test system: PDE4
# Assay: PDE4 inhibition, scintillation proximity assay (SPA);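 for PDE4 Inhibitory Activity (concentration for the inhibition rate of 50%): A below 100 nM B 100 to below 1000 nM C 1000 nM or more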
# Type: biochemical
# Method: The PDE4 inhibitory activity was measured using scintillation proximity assay (SPA) as follows. A sample compound dissolved in dimethyl sulfoxide was diluted 1:10 in reaction buffer solution which contained 50 mM of Tris-HCl with pH 7.4, 8.3 mM of MgCl2, 1.7 mM of EGTA, and 3 mg/mL of bovine serum albumin (BSA). Then, 10 μL of the diluted solution was added in a 96-well assay plate. Moreover, 50 μL of PDE4 diluted 1:375 in the reaction buffer solution was added, and then 40 μL of [2,8-^3H]-adenosine-3′,5′-cyclic phosphate triethylammonium salt diluted 1:1000 in the reaction buffer solution was added. The mixture was allowed to stand at room temperature for 120 minutes. Thereafter, […] of RNA binding YSi-SPA beads suspension containing ZnSO4 was added and the mixture was allowed to stand at room temperature for 15 minutes, followed by adsorption of the enzyme reaction product to the beads. After that, the radioactivity was measured using a liquid scintillation counter for a 96-well plate. The mixture without the enzyme preparation added but only the reaction buffer solution added is a blank, and the mixture with the enzyme preparation added and only dimethyl sulfoxide added instead of the sample solution is a control.
# [1] = scintillation proximity assay (SPA), evaluated as classes A, B, C, read-out: PDE4 Inhibitory Activity (concentration for the inhibition rate of 50%)
# [2] = scintillation proximity assay, class symbols, read-out: PDE4 Inhibitory Activity
smiles,measurement,setting,value
"O=C(c1cc(-c2nccs2)c2oc(N3CC4CCC(C3)N4)nc2c1OC(F)(F)F)N1CC(O)(C(F)(F)F)C1 [Example 194, (2-(3,8-Diazabicyclo[3.2.1]octan-3-yl)-7-(thiazol-2-yl)-4-(trifluoromethoxy)benzo[d]oxazol-5-yl)(3-hydroxy-3-(trifluoromethyl)azetidin-1-yl)methanone]",IC50,[1],100 to 1000 nM
"CC(C)(O)c1cc(-c2nccs2)c2oc(N3CC4CCC(C3)N4)nc2c1C(F)(F)F [Example 177, 2-(2-(3,8-Diazabicyclo[3.2.1]octan-3-yl)-7-(thiazol-2-yl)-4-(trifluoromethyl)benzo[d]oxazol-5-yl)propan-2-ol]",IC50,[1],< 100 nM
"C[S+]([O-])c1cc(-c2nccs2)c2oc(N3CC4CCC(C3)N4)nc2c1 (centres unmarked) [Example 42, 2-(3,8-Diazabicyclo[3.2.1]octan-3-yl)-5-(methylsulfinyl)-7-(thiazol-2-yl)benzo[d]oxazole]",IC50,[1],< 100 nM
"CC(=O)c1cc(-c2nccs2)c2oc(N3CC4CC(C3)N4)nc2c1C(F)(F)F [Example 180, 1-(2-(3,6-Diazabicyclo[3.1.1]heptan-3-yl)-7-(thiazol-2-yl)-4-(trifluoromethyl)benzo[d]oxazol-5-yl)ethan-1-one]",IC50,[1],< 100 nM
"OC(c1cc(-c2nccs2)c2oc(N3CC4CCC(C3)N4)nc2c1C(F)(F)F)C(F)F (centres unmarked) [Example 183, 1-(2-(3,8-Diazabicyclo[3.2.1]octan-3-yl)-7-(thiazol-2-yl)-4-(trifluoromethyl)benzo[d]oxazol-5-yl)-2,2-difluoroethan-1-ol]",IC50,[1],< 100 nM
"CN(CCO)C(=O)C(F)(F)Oc1ccc(-c2nccs2)c2oc(N3CC4CC(C3)N4)nc12 [Example 407, 2-((2-(3,6-diazabicyclo [3.1.1]heptan-3-yl)-7-(thiazol-2-yl)benzo[d]oxazol-4-yl)oxy)-2,2-difluoro-N-(2-hydroxy-ethyl)-N-methyl-acetamide]",IC50,[2],< 100 nM
"CC(C)(O)C(F)(F)Oc1ccc(-c2nccs2)c2oc(N3CC4CC(C3)N4O)nc12 [Example 371, 3-(4-(1,1-difluoro-2-hydroxy-2-methylpropoxy)-7-(thiazol-2-yl)benzo[d]oxazol-2-yl)-3,6-diazabicyclo [3.1.1]heptan-6-ol]",IC50,[2],< 100 nM
"COC(C)c1cc(-c2nccs2)c2oc(N3CC4CC(C3)N4)nc2c1C(F)(F)F (centres unmarked) [Example 185, 2-(3,6-Diazabicyclo[3.1.1]heptan-3-yl)-5-(1-methoxyethyl)-7-(thiazol-2-yl)-4-(trifluoromethyl)benzo[d]oxazole]",IC50,[1],< 100 nM
"CN(C)C(=O)c1cc(-c2nccs2)c2oc(N3CC4CCC(C3)N4)nc2c1 [Example 94, 2-(3,8-Diazabicyclo[3.2.1]octan-3-yl)-N,N-dimethyl-7-(thiazol-2-yl)benzo[d]oxazole-5-carboxamide]",IC50,[1],< 100 nM
"c1csc(-c2ccc(OC3CCC3)c3nc(N4CC5CCC(C4)N5)oc23)n1 [Example 81, 2-(3,8-Diazabicyclo[3.2.1]octan-3-yl)-4-cyclobutoxy-7-(thiazol-2-yl)benzo[d]oxazole]",IC50,[1],< 100 nM
"FC(F)(F)Oc1c(Cl)cc(-c2nccs2)c2oc(N3CC4CCC(C3)N4)nc12 [Example 1, 2-(3,8-Diazabicyclo[3.2.1]octan-3-yl)-5-chloro-7-(thiazol-2-yl)-4-(trifluoromethoxy)benzo[d]oxazole]",IC50,[1],< 100 nM
"OC(c1cc(-c2nccs2)c2oc(N3CC4CCC(C3)N4)nc2c1OC(F)(F)F)C(F)F (centres unmarked) [Example 206, 1-(2-(3,8-Diazabicyclo[3.2.1]octan-3-yl)-7-(thiazol-2-yl)-4-(trifluoromethoxy)benzo[d]oxazol-5-yl)-2,2-difluoroethan-1-ol]",IC50,[1],< 100 nM
"CS(=O)(=O)c1cc(-c2nccs2)c2oc(N3CC4CC(C3)N4)nc2c1 [Example 46, 2-(3,6-Diazabicyclo[3.1.1]heptan-3-yl)-5-(methylsulfonyl)-7-(thiazol-2-yl)benzo[d]oxazole]",IC50,[1],< 100 nM
"CC(C)Oc1cc(-c2nccs2)c2oc(N3CC4CCC(C3)N4)nc2c1 [Example 68, 2-(3,8-Diazabicyclo[3.2.1]octan-3-yl)-5-isopropoxy-7-(thiazol-2-yl)benzo[d]oxazole]",IC50,[1],< 100 nM
"OC(c1cc(-c2nccs2)c2oc(N3CC4CC(C3)N4)nc2c1)C(F)(F)F (centres unmarked) [Example 135, 1-(2-(3,6-Diazabicyclo[3.1.1]heptan-3-yl)-7-(thiazol-2-yl)benzo[d]oxazol-5-yl)-2,2,2-trifluoroethan-1-ol]",IC50,[1],< 100 nM
"CC(C)(O)COC(c1ccc(-c2nccs2)c2oc(N3CC4CC(C3)N4)nc12)C(F)F (centres unmarked) [Example 127, 1-(1-(2-(3,6-Diazabicyclo[3.1.1]heptan-3-yl)-7-(thiazol-2-yl)benzo[d]oxazol-4-yl)-2,2-difluoroethoxy)-2-methylpropan-2-ol]",IC50,[1],< 100 nM
"CC(C)(O)c1cc(-c2nccs2)c2oc(N3CC4CC(C3)N4)nc2c1OC(F)(F)F [Example 196, 2-(2-(3,6-Diazabicyclo[3.1.1]heptan-3-yl)-7-(thiazol-2-yl)-4-(trifluoromethoxy)benzo[d]oxazol-5-yl)propan-2-ol]",IC50,[1],< 100 nM
"COC(C)(C)C(F)(F)Oc1ccc(-c2nccs2)c2oc(N3CC4CC(C3)N4)nc12 [Example 393, 2-(3,6-diazabicyclo[3.1.1]heptan-3-yl)-4-(1,1-difluoro-2-methoxy-2-methylpropoxy)-7-(thiazol-2-yl) benzo[d]oxazole]",IC50,[2],< 100 nM
"FC(F)(F)Oc1cc(-c2nccs2)c2oc(N3CC4CCC(C3)N4)nc2c1 [Example 54, 2-(3,8-Diazabicyclo[3.2.1]octan-3-yl)-7-(thiazol-2-yl)-5-(trifluoromethoxy)benzo[d]oxazole]",IC50,[1],< 100 nM
"OC(c1ccc(-c2nccs2)c2oc(N3CC4CCC(C3)N4O)nc12)C(F)(F)F (centres unmarked) [Example 379, 3-(7-(thiazol-2-yl)-4-(2,2,2-trifluoro-1-hydroxyethyl)benzo[d]oxazol-2-yl)-3,8-diaza-bicyclo[3.2.1] octan-8-ol]",IC50,[2],< 100 nM
"O=S1(=O)CCC(Oc2ccc(-c3nccs3)c3oc(N4CC5CC(C4)N5)nc23)CC1 [Example 314, 4-((2-(3,6-Diazabicyclo[3.1.1]heptan-3-yl)-7-(thiazol-2-yl)benzo[d]oxazol-4-yl)oxy)tetrahydro-2H-thiopyran 1,1-dioxide]",IC50,[1],< 100 nM
"O=S1(=O)CCN(c2ccc(-c3nccs3)c3oc(N4CC5CC(C4)N5)nc23)CC1 [Example 398, 4-(2-(3,6-diazabicyclo[3.1.1]heptan-3-yl)-7-(thiazol-2-yl)benzo[d]oxazol-4-yl)thiomorpholine 1,1-dioxide]",IC50,[2],< 100 nM
"CC(=O)Nc1ccc(-c2nccs2)c2oc(N3CC4CC(C3)N4)nc12 [Example 35, N-(2-(3,6-diazabicyclo[3.1.1]heptan-3-yl)-7-(thiazol-2-yl)benzo[d]oxazol-4-yl)acetamide]",IC50,[1],100 to 1000 nM
"CC(O)c1cc(-c2nccs2)c2oc(N3CC4CCC(C3)N4)nc2c1 (centres unmarked) [Example 106, 1-(2-(3,8-Diazabicyclo[3.2.1]octan-3-yl)-7-(thiazol-2-yl)benzo[d]oxazol-5-yl)ethan-1-ol]",IC50,[1],< 100 nM
"Clc1ccc(-c2nccs2)c2oc(N3CC4CCCC(C3)N4)nc12 [Example 38, 2-(3,9-Diazabicyclo[3.3.1]nonan-3-yl)-4-chloro-7-(thiazol-2-yl)benzo[d]oxazole]",IC50,[1],< 100 nM
"CC(O)(c1cc(-c2nccs2)c2oc(N3CC4CCC(C3)N4)nc2c1OC(F)(F)F)C(F)(F)F (centres unmarked) [Example 217, 2-(2-(3,8-Diazabicyclo[3.2.1]octan-3-yl)-7-(thiazol-2-yl)-4-(trifluoromethoxy)benzo[d]oxazol-5-yl)-1,1,1-trifluoropropan-2-ol]",IC50,[1],< 100 nM
"OC(c1cc(-c2nccs2)c2oc(N3CC4CCC(C3)N4)nc2c1OC(F)(F)F)C(F)F (centres unmarked) [Example 276, 1-(2-(3,8-Diazabicyclo[3.2.1]octan-3-yl)-7-(thiazol-2-yl)-4-(trifluoromethoxy)benzo[d]oxazol-5-yl)-2,2-difluoroethan-1-ol]",IC50,[1],< 100 nM
"CC(C)(O)C1CC(Oc2ccc(-c3nccs3)c3oc(N4CC5CC(C4)N5)nc23)C1 (centres unmarked) [Example 267, 2-(3-((2-(3,6-Diazabicyclo[3.1.1]heptan-3-yl)-7-(thiazol-2-yl)benzo[d]oxazol-4-yl)oxy)cyclobutyl)propan-2-ol]",IC50,[1],< 100 nM
"COCC(O)COc1ccc(-c2nccs2)c2oc(N3CC4CCC(C3)N4)nc12 (centres unmarked) [Example 83, 1-((2-(3,8-Diazabicyclo[3.2.1]octan-3-yl)-7-(thiazol-2-yl)benzo[d]oxazol-4-yl)oxy)-3-methoxypropan-2-ol]",IC50,[1],< 100 nM
"NS(=O)(=O)c1cc(-c2nccs2)c2oc(N3CC4CCC(C3)N4)nc2c1 [Example 57, 2-(3,8-Diazabicyclo[3.2.1]octan-3-yl)-7-(thiazol-2-yl) benzo[d]oxazole-5-sulfonamide]",IC50,[1],< 100 nM
"CCOC(=O)c1cc(-c2nccs2)c2oc(N3CC4CCC(C3)N4)nc2c1C(F)(F)F [Example 163, Ethyl 2-(3,8-diazabicyclo[3.2.1]octan-3-yl)-7-(thiazol-2-yl)-4-(trifluoromethyl)benzo[d]oxazole-5-carboxylate]",IC50,[1],< 100 nM
"CN(CCO)C(=O)c1cc(-c2nccs2)c2oc(N3CC4CCC(C3)N4)nc2c1OC(F)(F)F [Example 193, 2-(3,8-Diazabicyclo[3.2.1]octan-3-yl)-N-(2-hydroxyethyl)-N-methyl-7-(thiazol-2-yl)-4-(trifluoromethoxy)benzo [d]oxazole-5-carboxamide]",IC50,[1],< 100 nM
